Non-standard residues stand in square brackets, D forms with d. Residues, ends and D or L forms follow the SMILES beside them. No end group written: not given here. *: point of attachment. X1 = O=C(NCCCN*)c1ccc(-c2n[nH]c3ccccc23)cc1
Key:
JNK1 [1] = biological target: T1, JNK1 (Homo sapiens, UniProt P45983); assay: DELFIA assay: displacement of biotinylated pepJIP1 (L-JIP1 peptide) from GST-JNK1; format: binding; settings: for Delfia Assay (Displacement of L-JIP1 peptide from JNK), ND class: Table 1, ND with footnote
Protocol: In order to define an optimal interacting docking peptide sequence for JNK, twenty peptide sequences were tested, which were derived from its putative substrates and scaffolding proteins, all presenting a D-domain consensus motif. Each peptide was tested for its ability to displace pepJIP1 (residues 153-164) from JNK1 by using a Dissociation Enhanced Lanthanide Fluoro-Immuno Assay (DELFIA) platform. DELFIA is a heterogeneous assay whereby a biotin-linked pepJIP1 is adsorbed onto a streptavidin-coated plate followed by incubation with GST-JNK1. Detection of the pepJIP1/GST-JNK1 complex is facilitated by a highly fluorescent anti-GST Eu-antibody conjugate (Perkin-Elmer).
DELFIA Assay (dissociation enhanced lanthanide fluoro-immuno assay). […] After 1 hr incubation and elimination of unbound biotin-pepJIP1 by 3 washing steps, 87 μL of Eu-labeled anti-GST antibody solution (300 ng/ml; 1.9 nM), 2.5 μL DMSO solution containing test compound, and 10 μL solution of GST-JNK1 for a final protein concentration of 10 nM was added. After 1 hr incubation at 0° C., each well was washed 5 times to eliminate unbound protein and the Eu-antibody if displaced by a test compound. Subsequently, 200 μL of enhancement solution (Perkin-Elmer) was added to each well and fluorescence measured after 10 min incubation (excitation wavelength, 340 nm; emission wavelength, 615 nm). Controls include unlabeled peptide and blanks receiving no compounds. Protein and peptide solutions were prepared in DELFIA buffer (Perkin-Elmer).

JNK1 [2] = biological target: T1, JNK1; assay: LanthaScreen TR-FRET in vitro kinase activity assay, JNK1 phosphorylation of ATF2; format: biochemical; settings: for Kinase Activity Assay (JNK), ND class: Table 1, ND with footnote
Protocol: LanthaScreen™ In vitro Kinase Assay. LanthaScreen™ assay platform from Invitrogen was utilized. The time-resolved fluorescence resonance energy transfer assay (TR-FRET) was performed in 384 well plates. Each well received JNK1 (100 ng/mL), ATF2 (200 nM), and ATP (1 μM) in 50 mM HEPES, 10 mM MgCl2, 1 mM EGTA and 0.01% Brij-35, pH 7.5 and test compounds. The kinase reaction was performed at room temperature for 1 hr. After this time, the terbium labeled antibody and EDTA were added into each well. After an additional hour incubation, the signal was measured at 520/495 nm emission ratio on a BMG Pherastar fluorescence plate reader.

p38α = p38α (Homo sapiens, UniProt Q16539); assay: LanthaScreen kinase activity assay with ATF2 substrate versus p38α; format: biochemical
Protocol: In order to confer further favorable pharmacological properties to this compound for in vivo studies, analogous to the clinical candidate D-JNK1^15, an all-D retro-inverso version of BI77B8 fused to the cell penetrating HIV-TAT sequence was prepared. […] LanthaScreen™ In vitro Kinase Assay. LanthaScreen™ assay platform from Invitrogen was utilized. The time-resolved fluorescence resonance energy transfer assay (TR-FRET) was performed in 384 well plates. […] After this time, the terbium labeled antibody and EDTA were added into each well. After an additional hour incubation, the signal was measured at 520/495 nm emission ratio on a BMG Pherastar fluorescence plate reader.

[3] = Table 3, read-out: pepJIP Displacement IC50
[4] = JNK1, ATF2 substrate, read-out: Kinase Inhibition IC50
[5] = Table 1, read-out: Kinase Activity Assay (JNK) IC50
[6] = Table 2, read-out: IC50 (μM), Kinase Assay
[7] = Table 1, read-out: Delfia Assay (Displacement of L-JIP1 peptide from JNK) IC50

T1 sequence (P45983 whole entry, species assumed, the tested form may be a part): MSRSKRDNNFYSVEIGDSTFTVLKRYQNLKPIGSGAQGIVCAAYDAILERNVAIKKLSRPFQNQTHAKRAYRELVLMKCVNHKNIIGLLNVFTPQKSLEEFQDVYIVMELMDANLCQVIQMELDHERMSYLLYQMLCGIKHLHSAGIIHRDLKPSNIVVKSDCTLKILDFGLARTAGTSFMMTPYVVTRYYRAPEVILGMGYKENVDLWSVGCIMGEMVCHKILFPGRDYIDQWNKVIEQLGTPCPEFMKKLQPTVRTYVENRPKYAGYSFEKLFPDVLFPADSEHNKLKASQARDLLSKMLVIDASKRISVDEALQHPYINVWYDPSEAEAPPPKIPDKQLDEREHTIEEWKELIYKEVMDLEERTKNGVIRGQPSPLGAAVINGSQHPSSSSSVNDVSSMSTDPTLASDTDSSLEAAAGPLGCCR
Chain of p38α (Q16539 whole entry, the tested form may be a part): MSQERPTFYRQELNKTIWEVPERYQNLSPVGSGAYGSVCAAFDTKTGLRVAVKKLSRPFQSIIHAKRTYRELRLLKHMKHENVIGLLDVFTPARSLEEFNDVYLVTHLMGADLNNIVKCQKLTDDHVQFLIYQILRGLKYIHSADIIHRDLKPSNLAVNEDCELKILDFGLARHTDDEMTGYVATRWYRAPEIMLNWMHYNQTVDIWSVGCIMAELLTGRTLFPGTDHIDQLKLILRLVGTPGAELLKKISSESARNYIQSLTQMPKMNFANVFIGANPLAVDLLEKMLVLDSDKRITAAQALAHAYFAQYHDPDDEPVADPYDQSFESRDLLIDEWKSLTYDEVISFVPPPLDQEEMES

Compound: NCCCNC(=O)c1ccc(-c2n[nH]c3ccccc23)cc1
- Delfia Assay (Displacement of L-JIP1 peptide from JNK), ND class (JNK1 [1]): ND^*) (In the Delfia Assay, no displacement up to 100 μM)

Compound: Ac-tdqsrpvqpflnlttprrprpprrrqrrkkrg-OH [D-JNKI]
- IC50 (JNK1 [1]; [3]): ~10 µM
- IC50 (JNK1 [2]; [4]): > 50 µM

Compound: CC(C)CC(NC(=O)C(CC(N)=O)NC(=O)C(CC(C)C)NC(=O)C(NC(=O)C(NC(=O)C1CCCN1C(=O)C(N)CCCNC(=N)N)C(C)O)C(C)O)C(=O)NCC(=O)NCC(=O)NCCCNC(=O)c1ccc(-c2n[nH]c3ccccc23)cc1 (centres unmarked) [BI-77B8] (H-RPTTLNLGG-X1; configuration not given here)
- Affinity in competition with pepJIP1 for JNK1 binding (JNK1 [1]): sub-nanomolar
- IC50 (JNK1 [1]; [3]): 0.9 µM
- Affinity in inhibition of JNK1 kinase activity (JNK1 [2]): sub-nanomolar
- IC50 (JNK1 [2]; [4]): 0.7 µM
- Improvement of kinase inhibition compared with pepJIP1 (JNK1 [2]; direct comparison with pepJIP1): over 100 fold

Compound: CC(C)(C)OC(=O)NCCCNC(=O)c1ccc(-c2n[nH]c3ccccc23)cc1
- Delfia Assay (Displacement of L-JIP1 peptide from JNK), ND class (JNK1 [1]): ND^*) (In the Delfia Assay, no displacement up to 100 μM)
- IC50 (JNK1 [2]; [5]): 3.5 µM

Compound: CC(C)(C)OC(=O)NCCCCCNC(=O)c1ccc(-c2n[nH]c3ccccc23)cc1
- IC50 (JNK1 [2]; [6]): 2.3 µM

Compound: CN1CCN(CCC(=O)NCCCCCNC(=O)c2ccc(-c3n[nH]c4ccccc34)cc2)CC1
- IC50 (JNK1 [2]; [6]): 4.5 µM

Compound: Ac-LNLGG-OH
- Delfia Assay (Displacement of L-JIP1 peptide from JNK), ND class (JNK1 [1]): ND^*) (In the Delfia Assay, no displacement up to 100 μM)
- Kinase Activity Assay (JNK), ND class (JNK1 [2]): ND^*) (in the Kinase Assay, no activity at 25 μM)

Compound: COC(=O)CCCNC(=O)c1ccc(-c2n[nH]c3ccccc23)cc1
- IC50 (JNK1 [2]; [6]): 0.9 µM

Compound: AcGRKKRRQRRRGGRPTTLNLGG (Ac-GRKKRRQRRRGGRPTTLNLGG)
- Kinase Activity Assay (JNK) % inhibition (JNK1 [2]; at 50 μM): 90%
- Kinase Activity Assay (p38[…]) % at 50 μM (p38α): 6% at 50 μm

Compound: COC(=O)c1ccc(-c2n[nH]c3ccccc23)cc1
- IC50 (JNK1 [2]; [6]): 9.7 µM

Compound: GGLNLTTPRGGRRRQRRKKRG-NH2 (GG[dL][dN][dL][dT][dT][dP][dR]GG[dR][dR][dR][dQ][dR][dR][dK][dK][dR]G-NH2)
- Kinase Activity Assay (JNK) % inhibition (JNK1 [2]; at 50 μM): 11%
- Kinase Activity Assay (p38[…]) % at 50 μM (p38α): 0% at 50 μm

Compound: Compound I (RPTTLNLGG; also: conjugate per reaction scheme A)
- Inhibitor activity compared with peptide Ac-RPTTLNLGG-OH and product 8 (JNK1 [1]; FIGS. 1A-1D, Delfia Assay): substantially more active
- ATP competition analysis (JNK1 [2]; FIGS. 2A, 2B): competitive, at least to some extent
- ATF2 competition analysis (JNK1 [2]; FIGS. 2C, 2D): competitive, at least to some extent
- Selectivity relative to p38a (p38α; FIGS. 3A, 3B): good selectivity

Compound: Ac-PTTLNLGG-OH
- Delfia Assay (Displacement of L-JIP1 peptide from JNK), ND class (JNK1 [1]): ND^*) (In the Delfia Assay, no displacement up to 100 μM)
- Kinase Activity Assay (JNK), ND class (JNK1 [2]): ND^*) (in the Kinase Assay, no activity at 25 μM)

Compound: RPKRPTTLNLF
- IC50 (JNK1 [1]; [7]): 2.9 µM
- IC50 (JNK1 [2]; [5]): 0.423 µM
- Kinase Activity Assay (p38[…]) % at 50 μM (p38α): 6% at 50 μM

Compound: Ac-LNL-OH
- Delfia Assay (Displacement of L-JIP1 peptide from JNK), ND class (JNK1 [1]): ND^*) (In the Delfia Assay, no displacement up to 100 μM)
- Kinase Activity Assay (JNK), ND class (JNK1 [2]): ND^*) (in the Kinase Assay, no activity at 25 μM)

Compound: Ac-RPTTLNLGG-OH
- IC50 (JNK1 [1]; [7]): 18 µM
- inhibition at 50 µM (JNK1 [2]; at 50 μM, read-out: Kinase Activity Assay (JNK) % inhibition): 25%

Compound: Ac-RPTTLNL-OH [BI-77F10, Ac-RPTTLNL-OH]
- IC50 (JNK1 [1]; [3]): 4.5 µM
- IC50 (JNK1 [2]; [4]): > 50 µM
- Inhibition of JNK1 phosphorylation of ATF2 (JNK1 [2]; at concentrations up to 25 μM): unable to inhibit

Compound: NCCCNC(=O)c1ccc(-c2n[nH]c3ccc(NC(=O)Cc4cccs4)cc23)cc1
- IC50 (JNK1 [2]; [6]): 1.9 µM

Compound: CC(C)(C)OC(=O)NCCCNC(=O)c1ccc(-c2n[nH]c3ccc(NC(=O)Cc4cccs4)cc23)cc1
- IC50 (JNK1 [2]; [6]): 1.2 µM
